Laboratory results taken from US20250361230A1, “LATS Inhibitors and Uses Thereof” (The USA, as Represented by the Secretary, Dept. of Heath …, priority 2022, published 2025).

How the values were obtained:
Format in all cases: biochemical
AKT = AKT (Homo sapiens, UniProt P31749); assay: RBC HotSpot kinase assay (33P-ATP, P81 filter-binding), AKT; conditions: Table 28, biochemical kinase assay; read-out: AKT IC50
In short: (§1)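 IC50 in nM was derived from 10-point, single-replicate titrations. Read-out was radiometric P81 filter binding following a 2 h room-temperature reaction with 33P-ATP, after 20 min compound preincubation.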

LATS1 = target: T1, LATS1 (Homo sapiens, UniProt O95835); assay: RBC HotSpot kinase assay (33P-ATP, P81 filter-binding), LATS1; conditions: Table 28, biochemical kinase assay; read-out: LATS1 IC50
T1 sequence (O95835 1-1130): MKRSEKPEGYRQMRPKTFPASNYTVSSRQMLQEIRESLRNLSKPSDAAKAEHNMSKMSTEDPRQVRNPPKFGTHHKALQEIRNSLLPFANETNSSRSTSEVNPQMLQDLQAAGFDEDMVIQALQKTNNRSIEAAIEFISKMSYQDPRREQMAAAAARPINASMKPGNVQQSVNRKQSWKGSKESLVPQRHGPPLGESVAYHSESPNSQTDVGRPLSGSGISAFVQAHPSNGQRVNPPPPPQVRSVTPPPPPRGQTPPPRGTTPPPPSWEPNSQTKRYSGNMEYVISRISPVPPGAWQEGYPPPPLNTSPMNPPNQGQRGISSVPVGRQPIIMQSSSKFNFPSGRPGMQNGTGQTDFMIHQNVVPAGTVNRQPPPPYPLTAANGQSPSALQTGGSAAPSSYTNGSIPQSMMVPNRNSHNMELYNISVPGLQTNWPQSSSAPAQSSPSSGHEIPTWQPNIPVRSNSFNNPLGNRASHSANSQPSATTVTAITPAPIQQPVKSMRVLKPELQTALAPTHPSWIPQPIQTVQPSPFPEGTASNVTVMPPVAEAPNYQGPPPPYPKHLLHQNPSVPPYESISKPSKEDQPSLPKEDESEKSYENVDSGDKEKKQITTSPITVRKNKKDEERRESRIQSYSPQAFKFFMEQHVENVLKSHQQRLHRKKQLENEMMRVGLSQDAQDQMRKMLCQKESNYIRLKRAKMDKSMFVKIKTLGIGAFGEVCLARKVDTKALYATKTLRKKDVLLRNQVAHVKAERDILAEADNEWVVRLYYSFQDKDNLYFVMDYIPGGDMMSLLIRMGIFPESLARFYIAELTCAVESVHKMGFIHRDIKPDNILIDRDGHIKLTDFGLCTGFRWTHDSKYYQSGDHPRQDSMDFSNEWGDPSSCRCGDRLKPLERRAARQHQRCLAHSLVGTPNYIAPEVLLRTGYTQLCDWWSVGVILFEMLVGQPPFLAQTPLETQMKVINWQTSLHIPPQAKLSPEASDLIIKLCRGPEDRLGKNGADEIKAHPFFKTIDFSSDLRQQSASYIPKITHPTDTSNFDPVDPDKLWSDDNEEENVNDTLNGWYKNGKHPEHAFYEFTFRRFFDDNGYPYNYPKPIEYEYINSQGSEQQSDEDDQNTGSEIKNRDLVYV
In short: as §1

LATS2 = target: T2, LATS2 (Homo sapiens, UniProt Q9NRM7); assay: RBC HotSpot kinase assay (33P-ATP, P81 filter-binding), LATS2; conditions: Table 28, biochemical kinase assay; read-out: LATS2 IC50
T2 sequence (Q9NRM7 1-1088): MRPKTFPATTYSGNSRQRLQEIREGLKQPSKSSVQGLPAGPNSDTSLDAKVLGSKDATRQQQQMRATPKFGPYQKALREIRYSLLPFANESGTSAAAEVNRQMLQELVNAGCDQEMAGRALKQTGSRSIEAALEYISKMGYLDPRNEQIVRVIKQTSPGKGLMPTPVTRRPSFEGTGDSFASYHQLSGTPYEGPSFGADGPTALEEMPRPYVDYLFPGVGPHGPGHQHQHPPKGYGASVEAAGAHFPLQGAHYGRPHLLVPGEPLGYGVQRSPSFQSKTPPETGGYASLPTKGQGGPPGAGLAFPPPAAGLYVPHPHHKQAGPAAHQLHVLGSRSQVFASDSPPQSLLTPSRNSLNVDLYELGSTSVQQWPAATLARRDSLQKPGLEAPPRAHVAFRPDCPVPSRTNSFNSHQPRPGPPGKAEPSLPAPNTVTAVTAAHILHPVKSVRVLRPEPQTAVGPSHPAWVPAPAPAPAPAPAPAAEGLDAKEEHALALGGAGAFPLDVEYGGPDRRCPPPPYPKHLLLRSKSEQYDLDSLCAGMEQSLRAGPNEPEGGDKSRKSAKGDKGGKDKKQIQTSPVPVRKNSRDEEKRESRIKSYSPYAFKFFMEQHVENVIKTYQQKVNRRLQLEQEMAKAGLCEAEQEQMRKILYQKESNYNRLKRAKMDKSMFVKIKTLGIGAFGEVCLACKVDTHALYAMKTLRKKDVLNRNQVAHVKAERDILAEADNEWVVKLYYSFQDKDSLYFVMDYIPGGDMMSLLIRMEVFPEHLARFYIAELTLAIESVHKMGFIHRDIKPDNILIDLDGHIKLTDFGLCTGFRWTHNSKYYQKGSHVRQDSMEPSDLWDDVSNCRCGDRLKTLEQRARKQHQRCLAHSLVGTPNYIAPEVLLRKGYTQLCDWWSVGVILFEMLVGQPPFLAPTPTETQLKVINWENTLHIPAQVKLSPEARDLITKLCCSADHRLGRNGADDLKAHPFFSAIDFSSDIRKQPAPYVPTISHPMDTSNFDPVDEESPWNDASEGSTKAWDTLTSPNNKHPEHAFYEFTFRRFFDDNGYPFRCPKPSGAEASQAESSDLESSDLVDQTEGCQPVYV
In short: as §1

Chain of AKT (P31749 whole entry): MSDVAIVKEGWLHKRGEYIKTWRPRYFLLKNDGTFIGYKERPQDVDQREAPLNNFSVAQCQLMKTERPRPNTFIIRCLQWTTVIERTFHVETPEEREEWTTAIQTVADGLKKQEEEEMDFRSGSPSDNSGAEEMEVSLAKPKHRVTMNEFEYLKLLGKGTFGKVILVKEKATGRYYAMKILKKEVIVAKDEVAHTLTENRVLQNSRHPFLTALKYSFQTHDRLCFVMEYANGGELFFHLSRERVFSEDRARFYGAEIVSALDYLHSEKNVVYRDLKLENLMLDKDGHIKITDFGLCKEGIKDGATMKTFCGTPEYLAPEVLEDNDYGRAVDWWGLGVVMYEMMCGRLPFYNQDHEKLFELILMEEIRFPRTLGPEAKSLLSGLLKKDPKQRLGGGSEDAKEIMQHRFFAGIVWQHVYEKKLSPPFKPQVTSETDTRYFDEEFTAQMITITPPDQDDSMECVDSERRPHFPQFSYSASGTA

| SMILES | IC50 (AKT) | IC50 (LATS1) | IC50 (LATS2) |
| --- | --- | --- | --- |
| OC1(c2c(F)cc(-c3ccnc4[nH]cc(F)c34)cc2F)CC2(CN(C3COC3)C2)C1 [Compound 138, 6-(2,6-difluoro-4-(3-fluoro-1H-pyrrolo[2,3-b]pyridin-4-yl)phenyl)-2-(oxetan-3-yl)-2-azaspiro[3.3]heptan-6-ol] | 2.71 µM | 0.0664 µM | 0.117 µM |
| O=S1(=O)CCC(N2CC3(C2)CC(O)(c2c(F)cc(-c4ccnc5[nH]cc(F)c45)cc2F)C3)CC1 [Compound 140, 4-(6-(2,6-difluoro-4-(3-fluoro-1H-pyrrolo[2,3-b]pyridin-4-yl)phenyl)-6-hydroxy-2-azaspiro[3.3]heptan-2-yl)tetrahydro-2H-thiopyran 1,1-dioxide] | 1.58 µM | 0.0568 µM | 0.12 µM |
| CC(C)(C)OC(=O)N1CCC(O)(c2ccc(-c3ccnc4[nH]ccc34)cc2)CC1 [Compound 141, tert-butyl 4-(4-(1H-pyrrolo[2,3-b]pyridin-4-yl)phenyl)-4-hydroxypiperidine-1-carboxylate] | > 10 µM | 0.897 µM | 0.465 µM |
| c1cc(-c2ccc(C3CC4CCCC(C3)N4)cc2)c2cc[nH]c2n1 (stereo not drawn) [Compound 146, 4-(4-(9-azabicyclo[3.3.1]nonan-3-yl)phenyl)-1H-pyrrolo[2,3-b]pyridine] | 2.46 µM | 0.203 µM | 0.0948 µM |
| NCC(=O)N1CCC(c2ccc(-c3ccnc4[nH]cc(F)c34)cc2Cl)CC1 [Compound 148, 2-amino-1-(4-(2-chloro-4-(3-fluoro-1H-pyrrolo[2,3-b]pyridin-4-yl)phenyl)piperidin-1-yl)ethan-1-one] | 1.08 µM | 0.0077 µM | 0.0178 µM |
| NC(=O)c1ccc(-c2cc(-c3ccnc4[nH]ccc34)ccc2C2CCNCC2)cc1 [Compound 150, 2′-(piperidin-4-yl)-5′-(1H-pyrrolo[2,3-b]pyridin-4-yl)-[1,1′-biphenyl]-4-carboxamide] | 0.967 µM | 0.0329 µM | 0.0259 µM |
| NCc1ccc(-c2cc(-c3ccnc4[nH]cc(Br)c34)ccc2C2CCNCC2)cc1 [Compound 151, (5′-(3-bromo-1H-pyrrolo[2,3-b]pyridin-4-yl)-2′-(piperidin-4-yl)-[1,1′-biphenyl]-4-yl)methanamine] | 0.17 µM | 0.0166 µM | 0.0151 µM |
| c1ccc(-c2cc(-c3ccnc4[nH]ccc34)ccc2C2CCNCC2)cc1 [Compound 153, 4-(6-(piperidin-4-yl)-[1,1′-biphenyl]-3-yl)-1H-pyrrolo[2,3-b]pyridine] | 0.378 µM | 0.0152 µM | 0.0204 µM |
| c1cncc(-c2cc(-c3ccnc4[nH]ccc34)ccc2C2CCNCC2)c1 [Compound 154, 4-(4-(piperidin-4-yl)-3-(pyridin-3-yl)phenyl)-1H-pyrrolo[2,3-b]pyridine] | 1.32 µM | 0.087 µM | 0.048 µM |
| NCc1ccc(-c2cc(-c3ccnc4[nH]ccc34)ccc2C2CCNCC2)cc1 [Compound 155, (2′-(piperidin-4-yl)-5′-(1H-pyrrolo[2,3-b]pyridin-4-yl)-[1,1′-biphenyl]-4-yl)methanamine] | 0.068 µM | 0.0043 µM | 0.001 µM |
| CC(C)(C)Nc1cc(-c2ccnc3[nH]cc(F)c23)ccc1C1CCNCC1 [Compound 156, N-(tert-butyl)-5-(3-fluoro-1H-pyrrolo[2,3-b]pyridin-4-yl)-2-(piperidin-4-yl)aniline] | 1.12 µM | 0.139 µM | 0.121 µM |
| CC(C)(C)Nc1cc(-c2ccnc3[nH]ccc23)ccc1C1CCNCC1 [Compound 157, N-(tert-butyl)-2-(piperidin-4-yl)-5-(1H-pyrrolo[2,3-b]pyridin-4-yl)aniline] | 1.65 µM | 0.216 µM | 0.109 µM |
| CN(C)CCS(=O)(=O)N1CCC(c2ccc(-c3ccnc4[nH]cc(F)c34)cc2Cl)CC1 [Compound 159, 2-((4-(2-chloro-4-(3-fluoro-1H-pyrrolo[2,3-b]pyridin-4-yl)phenyl)piperidin-1-yl)sulfonyl)-N,N-dimethylethan-1-amine] | 8.52 µM | 0.174 µM | 0.139 µM |

Other lines, results leading:

| IC50 (AKT) | IC50 (LATS1) | IC50 (LATS2) | SMILES |
| --- | --- | --- | --- |
| 1.46 µM | 0.026 µM | 0.012 µM | O=C([C@@H]1CCCN1)N1CCC(O)(c2ccc(-c3ccnc4[nH]cc(F)c34)cc2)CC1 [Compound 143, (S)-3-fluoro-4-(4-(4-hydroxy-1-prolylpiperidin-4-yl)phenyl)-1H-pyrrolo[2,3-b]pyridine] |
| 2.77 µM | 0.05 µM | 0.026 µM | O=C([C@@H]1CCCN1)N1CC(O)(c2ccc(-c3ccnc4[nH]cc(F)c34)cc2Cl)C1 [Compound 144, (S)-4-(3-chloro-4-(3-hydroxy-1-prolylazetidin-3-yl)phenyl)-3-fluoro-1H-pyrrolo[2,3-b]pyridine] |
| 1.87 µM | 0.0283 µM | 0.046 µM | NCC(=O)N1CC2(C1)CC(O)(c1c(F)cc(-c3ccnc4[nH]cc(F)c34)cc1F)C2 [Compound 145, 2-amino-1-(6-(2,6-difluoro-4-(3-fluoro-1H-pyrrolo[2,3-b]pyridin-4-yl)phenyl)-6-hydroxy-2-azaspiro[3.3]heptan-2-yl)ethan-1-one] |
| 0.0673 µM | 0.0043 µM | 0.001 µM | NCc1ccc(-c2cc(-c3ccnc4[nH]cc(F)c34)ccc2C2CCNCC2)cc1 [Compound 149, (5′-(3-fluoro-1H-pyrrolo[2,3-b]pyridin-4-yl)-2′-(piperidin-4-yl)-[1,1′-biphenyl]-4-yl)methanamine] |
| 4.41 µM | 0.0663 µM | 0.0502 µM | COC(=O)c1c[nH]c2nccc(-c3ccc(C4CCNCC4)c(-c4ccc(CN)cc4)c3)c12 [Compound 152, methyl 4-(4′-(aminomethyl)-6-(piperidin-4-yl)-[1,1′-biphenyl]-3-yl)-1H-pyrrolo[2,3-b]pyridine-3-carboxylate] |
| 1.15 µM | 0.029 µM | 0.056 µM | COCCN1CCC(c2ccc(-c3ccnc4[nH]cc(F)c34)cc2Cl)CC1 [Compound 158, 4-(3-chloro-4-(1-(2-methoxyethyl)piperidin-4-yl)phenyl)-3-fluoro-1H-pyrrolo[2,3-b]pyridine] |
| > 10 µM | 0.451 µM | 0.442 µM | O=C(C1CC1)N1CCC(c2ccc(-c3ccnc4[nH]cc(F)c34)cc2Cl)CC1 [Compound 160, (4-(2-chloro-4-(3-fluoro-1H-pyrrolo[2,3-b]pyridin-4-yl)phenyl)piperidin-1-yl)(cyclopropyl)methanone] |
